Columns and labels:
[1] = system: wild-type mice (CF-1); assay: DC-Maximal electroshock seizure assay (DC-MES); assay type: in vivo, mouse
Description: Phenytoin was formulated in physiologic saline and was administered intraperitoneally (i.p.) using a 25-gauge needle at a dose volume of 10 mL/kg. All compounds were administered 2 hr prior to electrical seizure induction for all seizure models employed in this study.
The maximal electroshock seizure (MES) assay has been extensively used in the search for anticonvulsant substances ([Löscher et al., 1991]; [Piredda et al., 1985]; [White et al., 1995]). The MES assay is sensitive to nonselective NaV inhibitors. It is considered a model for generalized tonic-clonic (GTC) seizures and provides an assessment of seizure spread. Briefly, an electroshock of direct current (DC) was delivered by corneal electrodes (Electro Convulsive Therapy Unit 57,800 from Ugo Basile). The parameters of stimulation were different between mice and rats. In CF1 mice aged 9–12 weeks, a direct current of 50 mA (60 Hz) was delivered for 0.2 s (pulse width of 0.5ms), whereas in Sprague Dawley (SD) rats aged 5–6 weeks, a direct current of 150 mA (60 Hz) was delivered for 0.3 s (pulse width of 0.5ms). Immediately prior to the electroshock, the animals’ eyes were anesthetized with a drop of Alcaine (0.5% proparacaine hydrochloride).
An animal was considered protected in the assay in the absence of a GTC with hindlimb extension and is then scored ‘0’. An animal displaying GTC with hindlimb extension was considered not protected and is then scored ‘1’. The experimenter scoring the seizure behavior was blinded to the treatment.

[2] = system: Sprague Dawley rats; assay: Observation of potential adverse behavior (behavioral signs) in the rat DC-MES studies; assay type: in vivo; settings: for behavioral signs concentration (BSC) / plasma EC50 ratio (Tolerability / EC50 Rat MES): rat DC-MES
Description: Animals were observed by the scientist(s) responsible for dosing for the first 30 min after dosing for and again at the time of assay (2 hr post dose) for signs of abnormal behavior.

[3] = Bioanalytical assessment of plasma and brain concentrations after 6 Hz assay; assay type: in vivo, mouse; settings: Scn8a^N1768D/+, mouse, in vivo, SCN8A mouse 6HZ
Description: (§1) Approximately 0.5 mL of blood was collected from each mouse at the end of the assay via cardiac puncture under deep anesthesia. The blood samples were collected in a syringe and transferred to tubes containing EDTA. Blood was stored at 4 °C until centrifuged within 30 min of collection. Plasma was harvested and placed on dry ice and stored in a freezer set to maintain a temperature of –70°C to –80°C until analysis. Brains were harvested immediately after blood collection and placed on dry ice prior to storage in a freezer set to maintain a temperature of –70°C to –80°C until analysis.
(§2) Extraction of plasma samples was carried out by protein precipitation using acetonitrile. Plasma samples (50 µL) were mixed with 50 µL of internal standard (IS) solution in water followed by addition of 10 µL of concentrated ortho-phosphoric acid and 200 µL of acetonitrile. Samples were vortexed for 30 seconds, centrifuged at 13,000 rpm for 20 min, decanted in to a 96-well plate, and further centrifuged at 4000 rpm for 20 min. The samples were analyzed by UHPLC-ESI-MS/MS as described below.
(§3) Prior to extraction, pre-weighed whole brains were homogenized in 1:1 acetonitrile/water (v/v) (4 mL per mouse brain) using an IKA T18 ULTRA-TURRAX Homogenizer at the setting of 4 for approximately 2 min. The homogenate was centrifuged at 13,000 rpm for 20 min and 50 µL of the supernatant were treated exactly as described above for plasma samples. […]
(§4) Samples were analyzed by UHPLC-ESI MS/MS using a TQ-5500 Sciex triple quadrupole mass spectrometer equipped with a Shimadzu Nexera UHPLC pump and auto-sampler system using an ACE C18 PFP, 2.50 × 50 mm, 1.7 µm particle size column and gradient elution consisting of solvent A (0.1% formic acid in water) and solvent B (0.1% formic acid in acetonitrile) starting at 20% B from 0 min to 0.4 min and then increased to 100% B from 0.4 min to 0.6 min. At 2.0 min, the mobile phase composition was switched back to […] for 1 min. The flow rate used throughout the experiment was […]. […] The UHPLC-ESI MS/MS system was controlled by Analyst 1.6.
(§5) Sample concentrations were determined using a linear calibration function, weighted 1 /X, generated by the regression of analyte to IS peak area ratios in the standard samples to their respective concentrations. Acceptance criteria for the analytical run required that the back calculated values of the standards and the QC samples fell within ±20% of their nominal values, except for the lowest standard or lower limit of quantitation (LLOQ), for which the acceptance criterion was ±25%. At least 6 out of 12 standard points had to show back-calculated values within ±20% of their nominal concentrations for the calibration to be accepted. At least three QC samples, one at each level, had to show back-calculated values within ±20% of their nominal concentrations for the whole sample batch to be valid.

[4] = Bioanalytical assessment of plasma and brain concentrations after mouse DC-MES assay; assay type: in vivo; settings: mouse, in vivo, WT mouse DC-MES acute
Description: as §1, §2, §3, §4, §5

Structure (SMILES): COC[C@@H](NC(C)=O)C(=O)NCc1ccccc1 [lacosamide, Lacosamide, reference compound]
- EC50 ([1]; Mus musculus, 2 h, read-out: brain EC50): 7.1 µM
- WT mouse DC-MES acute Fraction of animals seizing ([1]; Study18003, 3 mg/kg): 0.625
- WT mouse DC-MES acute Fraction of animals seizing ([1]; Study18003, 10 mg/kg): 0.375
- WT mouse DC-MES acute Fraction of animals seizing ([1]; Study18003, 30 mg/kg): 0.125
- WT mouse DC-MES acute Fraction of animals seizing ([1]; Study18053, 3 mg/kg): 0.6667
- WT mouse DC-MES acute Fraction of animals seizing ([1]; Study18063, 3 mg/kg): 0.75
- minimal plasma concentration provoking behavioral signs (BSC) ([2]; rat): 123 µM
- behavioral signs concentration (BSC) / plasma EC50 ratio (Tolerability / EC50 Rat MES) [2]: 5.0 fold
- behavioral signs concentration (BSC) / plasma EC50 ratio (Tolerability / EC50 Rat MES) ([2]; listed as Lacosamide): 6.3 fold
- concentration at 2 h ([3]; 1 mg/kg, Study18011, 1 mg/kg, read-out: Mean [Brain]): 0.728 µM
- concentration at 2 h ([3]; 1 mg/kg, Study18011, 1 mg/kg, read-out: Mean [Palsma]): 1.12 µM
- concentration at 2 h ([3]; 3 mg/kg, Study18007, 3 mg/kg, read-out: Mean [Brain]): 2.84 µM
- concentration at 2 h ([3]; 3 mg/kg, Study18007, 3 mg/kg, read-out: Mean [Palsma]): 3.48 µM
- concentration at 2 h ([3]; 10 mg/kg, Study18007, 10 mg/kg, read-out: Mean [Brain]): 9.32 µM
- concentration at 2 h ([3]; 10 mg/kg, Study18007, 10 mg/kg, read-out: Mean [Palsma]): 10.7 µM
- concentration at 2 h ([3]; 10 mg/kg, Study18028, 10 mg/kg, read-out: Mean [Brain]): 7.58 µM
- concentration at 2 h ([3]; 10 mg/kg, Study18028, 10 mg/kg, read-out: Mean [Palsma]): 11.8 µM
- concentration at 2 h ([3]; 10 mg/kg, Study18042, 10 mg/kg, read-out: Mean [Brain]): 3.27 µM
- concentration at 2 h ([3]; 10 mg/kg, Study18042, 10 mg/kg, read-out: Mean [Palsma]): 14.4 µM
- concentration at 2 h ([3]; 30 mg/kg, Study18007, 30 mg/kg, read-out: Mean [Brain]): 21 µM
- concentration at 2 h ([3]; 30 mg/kg, Study18007, 30 mg/kg, read-out: Mean [Palsma]): 25.2 µM
- concentration at 2 h ([3]; 30 mg/kg, Study18011, 30 mg/kg, read-out: Mean [Brain]): 19.2 µM
- concentration at 2 h ([3]; 30 mg/kg, Study18011, 30 mg/kg, read-out: Mean [Palsma]): 29.6 µM
- concentration at 2 h ([3]; 56 mg/kg, Study18011, 56 mg/kg, read-out: Mean [Brain]): 28.3 µM
- concentration at 2 h ([3]; 56 mg/kg, Study18011, 56 mg/kg, read-out: Mean [Palsma]): 44.7 µM
- concentration at 2 h ([4]; 3 mg/kg, Study18003, 3 mg/kg, read-out: Mean [Brain]): 3.47 µM
- concentration at 2 h ([4]; 3 mg/kg, Study18003, 3 mg/kg, read-out: Mean [Palsma]): 3.25 µM
- concentration at 2 h ([4]; 3 mg/kg, Study18053, 3 mg/kg, read-out: Mean [Brain]): 1.95 µM
- concentration at 2 h ([4]; 3 mg/kg, Study18053, 3 mg/kg, read-out: Mean [Palsma]): 6.21 µM
- concentration at 2 h ([4]; 3 mg/kg, Study18063, 3 mg/kg, read-out: Mean [Brain]): 1.26 µM
- concentration at 2 h ([4]; 3 mg/kg, Study18063, 3 mg/kg, read-out: Mean [Palsma]): 4.46 µM
- concentration at 2 h ([4]; 10 mg/kg, Study18003, 10 mg/kg, read-out: Mean [Brain]): 11.5 µM
- concentration at 2 h ([4]; 10 mg/kg, Study18003, 10 mg/kg, read-out: Mean [Palsma]): 9.52 µM
- concentration at 2 h ([4]; 30 mg/kg, Study18003, 30 mg/kg, read-out: Mean [Brain]): 34.3 µM
- concentration at 2 h ([4]; 30 mg/kg, Study18003, 30 mg/kg, read-out: Mean [Palsma]): 26.7 µM

Reference: publication PMC8903829 (eLife, 2022)
